Literature values as cited in US7399860B2, “Manufacture of polyglutamate-therapeutic agent conjugates” (Cell Therapeutics Inc., priority 1999, dated 2008).

Tested on: tumor
Conditions: tumor-bearing hosts; U.S. Pat. No. 5,977,163; Li et al. 1998

Which “efficacy compared with the unconjugated form of the drug” value does the source give for polyglutamic acid-paclitaxel conjugate here?
The value was “increased efficacy”.
